Data taken from patent US20230108906A1, “SUBSTITUTED BICYCLIC AND TRICYCLIC UREAS AND AMIDES, ANALOGUES THEREOF, AND METHODS USING SAME” (Arbutus Biopharma Corporation, priority 2019, published 2023).

These compounds were tested on HBV rcDNA in HepDE19 cells (assay: HepDE19 assay with bDNA quantitation of HBV rcDNA). Conditions: Hepatitis B virus, HepDE19, 168 h, inhibition of rcDNA formation in HepDE19 cells (HepG2 derived), Tet-free medium, 7 day incubation, Quantigene 2.0 bDNA readout, top concentration 25 μM; read-out: DE-19bDNA EC50.
Assay type: cell-based, hepatitis B virus (HBV)
In short: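 Cytotoxicity run on replicate plates (5,000 cells/well, 4 days, ATP luminescence, CC50), while antiviral plates (50,000 cells/well) received compound for 7 days after tetracycline withdrawal to induce HBV replication. Top dose 25 μM, 8 points, 0.5% DMSO; rcDNA by branched-DNA assay, % inhibition fitted (4-parameter) for EC50 and EC90.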

Row | SMILES | EC50 [µM]
1 | CN(C(=O)Nc1ccc(F)c(Cl)c1)C1COCc2[nH]c(=O)c3cc(C#N)ccc3c21 (stereo not drawn) [Compound 89, 3-(3-Chloro-4-fluorophenyl)-1-(8-cyano-6-oxo-1,4,5,6-tetrahydro-2H-pyrano[3,4-c]isoquinolin-1-yl)-1-methylurea] | 1.1
2 | CN(C(=O)Nc1ccc(F)c(Cl)c1)C1CCCc2[nH]c(=O)c3c(c21)CCOC3 (single isomer, unassigned) [Compound 60, 3-(3-Chloro-4-fluorophenyl)-1-methyl-1-(5-oxo-1,4,5,6,7,8,9,10-octahydro-2H-pyrano[3,4-c]quinolin-10-yl)urea] | 3.2
3 | CN(C(=O)N1Cc2ccccc2C1)[C@@H]1COCc2[nH]c(=O)c3cc(F)c(F)cc3c21 [Compound 218, (S)—N-(8,9-Difluoro-6-oxo-1,4,5,6-tetrahydro-2H-pyrano[3,4-c]isoquinolin-1-yl)-N-methylisoindoline-2-carboxamide] | 1.2
4 | CN(C(=O)Nc1ccc(F)c(C(F)F)c1)[C@@H]1COCc2c1c1cc(F)c(F)cc1c(=O)n2CCO [Compound 251, (S)-1-(8,9-Difluoro-5-(2-hydroxyethyl)-6-oxo-1,4,5,6-tetrahydro-2H-pyrano[3,4-c]isoquinolin-1-yl)-3-(3-(difluoromethyl)-4-fluorophenyl)-1-methylurea] | 0.03
5 | O=C(Nc1ccc(F)c(Cl)c1)N[C@@H]1COCc2[nH]c(=O)c3cc(F)ccc3c21 (single isomer, unassigned) [Compound 67] | 0.09
6 | CN(C(=O)Nc1ccc(F)c(Cl)c1)C1CCCc2[nH]c(=O)c3cc(F)ccc3c21 (stereo not drawn) [Compound 9, 3-(3-Chloro-4-fluorophenyl)-1-(8-fluoro-6-oxo-1,2,3,4,5,6-hexahydrophenanthridin-1-yl)-1-methylurea] | 0.03
7 | CN(C(=O)Nc1ccc(F)c(Cl)c1)C1CCCc2[nH]c(=O)cc(C(F)(F)F)c21 (stereo not drawn) [Compound 2, 3-(3-Chloro-4-fluorophenyl)-1-methyl-1-(2-oxo-4-(trifluoromethyl)-1,2,5,6,7,8-hexahydroquinolin-5-yl)urea] | 1.5
8 | CC(C)CN(C(=O)Nc1ccc(F)c(F)c1)C1CCc2[nH]c(=O)cc(C(F)(F)F)c21 (stereo not drawn) [Compound 5, 3-(3,4-Difluorophenyl)-1-isobutyl-1-(2-oxo-4-(trifluoromethyl)-2,5,6,7-tetrahydro-1H-cyclopenta[b]pyridin-5-yl)urea] | 1.1
9 | CN(C(=O)Nc1ccc(F)c(Cl)c1)[C@H]1COCc2[nH]c(=O)c3cc(F)ccc3c21 (single isomer, unassigned) [Compound 40] | 1
10 | Cc1cc(NC(=O)N(C)[C@@H]2COCc3[nH]c(=O)c4cc(F)c(F)cc4c32)ccc1F (single isomer, unassigned) [Compound 69] | 0.01
11 | COc1nc2c(c3cc(F)c(F)cc13)[C@H](N(C)C(=O)Nc1ccc(F)c(C(F)F)c1)COC2 [Compound 234, (S)-1-(8,9-Difluoro-6-methoxy-1,4-dihydro-2H-pyrano[3,4-c]isoquinolin-1-yl)-3-(3-(difluoromethyl)-4-fluorophenyl)-1-methylurea] | 0.05
12 | CC(C)CN(C(=O)Nc1ccc(F)c(Cl)c1)C1COCc2[nH]c(=O)c3cc(F)ccc3c21 (stereo not drawn) [Compound 43, 3-(3-Chloro-4-fluorophenyl)-1-(8-fluoro-6-oxo-1,4,5,6-tetrahydro-2H-pyrano[3,4-c]isoquinolin-1-yl)-1-isobutylurea] | 0.01
13 | CN(C(=O)Nc1ccc(F)c(Cl)c1)C1CS(=O)(=O)Cc2[nH]c(=O)c3cc(F)c(F)cc3c21 (single isomer, unassigned) [Compound 203, 3-(3-Chloro-4-fluorophenyl)-1-(8,9-difluoro-3,3-dioxido-6-oxo-1,4,5,6-tetrahydro-2H-thiopyrano[3,4-c]isoquinolin-1-yl)-1-methylurea] | 1.4

Same assay, conditions: inhibition of rcDNA formation in HepDE19 cells (HepG2 derived), Tet-free medium, 7 day incubation, Quantigene 2.0 bDNA readout, top concentration 25 μM; read-out: DE-19bDNA EC50

Row | SMILES | EC50 [µM]
14 | CN(C(=O)Nc1ccc(F)c(C#N)c1)C1CN(CCO)Cc2[nH]c(=O)c3cc(F)c(F)cc3c21 (single isomer, unassigned) [Compound 182, 3-(3-Cyano-4-fluorophenyl)-1-(8,9-difluoro-3-(2-hydroxyethyl)-6-oxo-1,2,3,4,5,6-hexahydrobenzo[c][1,7]naphthyridin-1-yl)-1-methylurea] | 4.9
15 | CN(C(=O)Nc1ccc(F)c(F)c1)C1COCc2[nH]c(=O)c3cc(F)c(F)cc3c21 (single isomer, unassigned) [Compound 118, 1-(8,9-Difluoro-6-oxo-1,4,5,6-tetrahydro-2H-pyrano[3,4-c]isoquinolin-1-yl)-3-(3,4-difluorophenyl)-1-methylurea] | 0.01
16 | CN(C(=O)Nc1ccc(F)c(C(F)F)c1)C1COCc2nc(NCCO)c3cc(F)c(F)cc3c21 (single isomer, unassigned) [Compound 238, 1-(8,9-Difluoro-6-((2-hydroxyethyl)amino)-1,4-dihydro-2H-pyrano[3,4-c]isoquinolin-1-yl)-3-(3-(difluoromethyl)-4-fluorophenyl)-1-methylurea] | 0.02
17 | CN(C(=O)Nc1ccc(F)c(Cl)c1)C1CN(CCO)Cc2[nH]c(=O)c3cc(F)ccc3c21 (single isomer, unassigned) [Compound 169, 3-(3-Chloro-4-fluorophenyl)-1-(8-fluoro-3-(2-hydroxyethyl)-6-oxo-1,2,3,4,5,6-hexahydrobenzo[c][1,7]naphthyridin-1-yl)-1-methylurea] | 6.6
18 | NS(=O)(=O)CCN(C(=O)Nc1ccc(F)c(Cl)c1)C1COCc2[nH]c(=O)c3cc(F)c(F)cc3c21 (single isomer, unassigned) [Compound 136, 2-(3-(3-Chloro-4-fluorophenyl)-1-(8,9-difluoro-6-oxo-1,4,5,6-tetrahydro-2H-pyrano[3,4-c]isoquinolin-1-yl)ureido)ethane-1-sulfonamide] | 2.9
19 | CN(C(=O)Nc1ccc(F)c(Cl)c1)C1C[S+]([O-])Cc2[nH]c(=O)c3cc(F)ccc3c21 (single isomer, unassigned) [Compound 195] | 0.9
20 | CN(C(=O)Nc1ccc(F)c(Cl)c1)C1CSCc2[nH]c(=O)c3cc(F)ccc3c21 (single isomer, unassigned) [Compound 184, 3-(3-Chloro-4-fluorophenyl)-1-(8-fluoro-6-oxo-1,4,5,6-tetrahydro-2H-thiopyrano[3,4-c]isoquinoIin-1-yl)-1-methylurea] | 0.03
21 | CN(C(=O)Nc1ccc(F)c(Cl)c1)C1CN(CCO)Cc2[nH]c(=O)c3cc(F)c(F)cc3c21 (single isomer, unassigned) [Compound 180, 3-(3-Chloro-4-fluorophenyl)-1-(8,9-difluoro-3-(2-hydroxyethyl)-6-oxo-1,2,3,4,5,6-hexahydrobenzo[c][1,7]naphthyridin-1-yl)-1-methylurea] | 1.4
22 | CCN(C(=O)Nc1ccc(F)c(Cl)c1)C1CCCc2[nH]c(=O)c3c(c21)CCCC3 (single isomer, unassigned) [Compound 53, 3-(3-Chloro-4-fluorophenyl)-1-ethyl-1-(6-oxo-1,2,3,4,5,6,7,8,9,10-decahydrophenanthridin-1-yl)urea] | 2.6
23 | CN(C(=O)Nc1ccc(F)c(F)c1)C1CCCc2[nH]c(=O)c3c(c21)COCC3 (single isomer, unassigned) [Compound 81, 3-(3,4-Difluorophenyl)-1-methyl-1-(5-oxo-3,4,5,6,7,8,9,10-octahydro-1H-pyrano[4,3-c]quinolin-10-yl)urea] | ≥ 25
24 | CN(C(=O)Nc1ccc(F)c(Cl)c1)C1COCc2nc(NCCO)c3cc(F)c(F)cc3c21 (single isomer, unassigned) [Compound 246, 3-(3-Chloro-4-fluorophenyl)-1-(8,9-difluoro-6-((2-hydroxyethyl)amino)-1,4-dihydro-2H-pyrano[3,4-c]isoquinolin-1-yl)-1-methylurea] | 0.02
25 | CNc1nc2c(c3cc(F)c(F)cc13)C(N(C)C(=O)Nc1ccc(F)c(C(F)F)c1)COC2 (single isomer, unassigned) [Compound 236, 1-(8,9-Difluoro-6-(methylamino)-1,4-dihydro-2H-pyrano[3,4-c]isoquinolin-1-yl)-3-(3-(difluoromethyl)-4-fluorophenyl)-1-methylurea] | 0.01
26 | CN(C(=O)Nc1ccc(F)c(C#N)c1)C1CNCc2[nH]c(=O)c3cc(F)ccc3c21 (single isomer, unassigned) [Compound 162, 3-(3-Cyano-4-fluorophenyl)-1-(8-fluoro-6-oxo-1,2,3,4,5,6-hexahydrobenzo[c][1,7]naphthyridin-1-yl)-1-methylurea] | 0.17
27 | CN(C(=O)Nc1ccc(F)c(Cl)c1)C1COCc2[nH]c(=O)c3ccccc3c21 (single isomer, unassigned) [Compound 36, 3-(3-Chloro-4-fluorophenyl)-1-methyl-1-(6-oxo-1,4,5,6-tetrahydro-2H-pyrano[3,4-c]isoquinolin-1-yl)urea] | 4.6
28 | CN(C(=O)Nc1ccc(F)c(Cl)c1)C1COCc2[nH]c(=O)c3c(c21)COCC3 (single isomer, unassigned) [Compound 83, 3-(3-Chloro-4-fluorophenyl)-1-methyl-1-(5-oxo-4,5,6,7,9,10-hexahydro-1H,3H-dipyrano[3,4-b:3′,4′-d]pyridin-10-yl)urea] | ≥ 25
29 | CN(C(=O)Nc1ccc(F)c(Cl)c1)C1COCc2nc(NCCN)c3cc(F)c(F)cc3c21 (single isomer, unassigned) [Compound 250] | 0.27
30 | CN(C(=O)Nc1ccc(F)c(C#N)c1)C1CS(=O)(=O)Cc2[nH]c(=O)c3cc(F)c(F)cc3c21 (single isomer, unassigned) [Compound 206, 3-(3-Cyano-4-fluorophenyl)-1-(8,9-difluoro-3,3-dioxido-6-oxo-1,4,5,6-tetrahydro-2H-thiopyrano[3,4-c]isoquinolin-1-yl)-1-methylurea] | 4.8
